Measured values: PubChem BioAssay AID274 (DTP/NCI, 2004)
Values joined by “and” are separate entries in the source; they are usually repeats but may differ in a detail not shown here. Identical values can stand only once. Inconclusive results and toxic doses are left out.

System: BDF1 mice, Lewis lung carcinoma iv, survival T/C
Experiment: NCI In Vivo Anticancer Drug Screen. Data for tumor model Lewis Lung Carcinoma (intravenous) in B6D2F1 (BDF1) mice
Conditions: endpoint: median survival time, schedule: Q01DX009 (ip), higher = longer survival
Method: The antitumor activity of compounds was measured in mice bearing transplantable tumors. Survival or tumor size were measured and the results are expressed as the measurement made in the treated group (T) divided by the measurement made in the vehicle treated control group (C). The tumor model used in this assay is Lewis Lung Carcinoma (intravenous) in B6D2F1 (BDF1) mice

[1] = dose: 1.25 mg/kg/injection, vehicle: saline
[2] = dose: 2.5 mg/kg/injection, vehicle: saline
[3] = dose: 5.0 mg/kg/injection, vehicle: saline
[4] = dose: 6.25 mg/kg/injection, vehicle: saline
[5] = dose: 12.5 mg/kg/injection, vehicle: saline
[6] = dose: 25.0 mg/kg/injection, vehicle: saline
[7] = dose: 25.0 mg/kg/injection, vehicle: saline with Tween-80
[8] = dose: 50.0 mg/kg/injection, vehicle: saline with Tween-80
[9] = dose: 100.0 mg/kg/injection, vehicle: saline with Tween-80
[10] = dose: 100.0 mg/kg/injection, vehicle: saline
[11] = dose: 200.0 mg/kg/injection, vehicle: saline
[12] = dose: 400.0 mg/kg/injection, vehicle: saline
[13] = dose: 50.0 mg/kg/injection, vehicle: saline
[14] = dose: 12.5 mg/kg/injection, vehicle: Klucel (hydroxypropylcellulose) (HPC)

C/C=C(\C)c1cc(=O)c2c(C)cc3c(c2o1)C(=O)c1c(O)c(C2CC(C)(N(C)C)C(O)C(C)O2)cc(C2CC(N(C)C)C(O)C(C)O2)c1C3=O (stereo unspecified)
T/C (dose: 31.25 micrograms/kg/injection, vehicle: saline): 103 % of control | T/C (dose: 62.5 micrograms/kg/injection, vehicle: saline): 106 % of control | T/C (dose: 125.0 micrograms/kg/injection, vehicle: saline): 112 % of control | T/C (dose: 250.0 micrograms/kg/injection, vehicle: saline): 86 % of control

CC(C)CC(NC(=O)CF)C(=O)O (stereo unspecified)
T/C (dose: 0.31 mg/kg/injection, vehicle: saline): 98 % of control | T/C (dose: 0.63 mg/kg/injection, vehicle: saline): 94 % of control | T/C [1]: 90 % of control | T/C [2]: 102 % of control | T/C [3]: 91 % of control

C/C=C/C=C/c1cc2cc3c(c(O)c2c(=O)[nH]1)C1(CC3)C(O)=c2c(=O)c3c(=O)cc(OC)c(=O)c=3c(=O)c2=C1O (stereo unspecified)
T/C (dose: 0.06 mg/kg/injection, vehicle: DMSO): 97 % of control | T/C (dose: 0.12 mg/kg/injection, vehicle: DMSO): 102 % of control | T/C (dose: 0.25 mg/kg/injection, vehicle: DMSO): 95 % of control and 101 % of control | T/C (dose: 0.5 mg/kg/injection, vehicle: DMSO): 102 % of control | T/C (dose: 16.0 micrograms/kg/injection, vehicle: DMSO): 102 % of control | T/C (dose: 31.0 micrograms/kg/injection, vehicle: DMSO): 93 % of control | T/C (dose: 62.0 micrograms/kg/injection, vehicle: DMSO): 91 % of control | T/C (dose: 125.0 micrograms/kg/injection, vehicle: DMSO): 102 % of control

COc1ccc2c(c1)/C(=C/CCN(C)C)c1ccccc1S2
T/C [4]: 114 % of control | T/C [5]: 98 % of control and 105 % of control | T/C [6]: 106 % of control and 110 % of control

Nc1ncnc2nc[nH]c12
T/C (dose: 32.0 mg/kg/injection, vehicle: Klucel (hydroxypropylcellulose) (HPC)): 99 % of control | T/C (dose: 64.0 mg/kg/injection, vehicle: Klucel (hydroxypropylcellulose) (HPC)): 99 % of control | T/C (dose: 128.0 mg/kg/injection, vehicle: Klucel (hydroxypropylcellulose) (HPC)): 98 % of control

O=NN(CCCl)C(=O)NC1[C@H](O)CCC[C@@H]1O (stereo partly specified)
T/C (dose: 0.62 mg/kg/injection, vehicle: saline): 105 % of control | T/C [1]: 120 % of control | T/C [2]: 159 % of control | T/C [3]: 278 % of control

CCCCCCCCCCCCOP(N)(=O)OCCCCCCCCCCCC
T/C [7]: 97 % of control | T/C [8]: 93 % of control | T/C [9]: 91 % of control

CCCCCCCCCCCCCCCCCC1=NC(C)CC(C)(C)O1 (stereo unspecified)
T/C [8]: 106 % of control | T/C [9]: 103 % of control | T/C (dose: 200.0 mg/kg/injection, vehicle: saline with Tween-80): 98 % of control

O=S(=O)(O)O.[W]
T/C (dose: 0.38 mg/kg/injection, vehicle: saline): 102 % of control | T/C (dose: 0.75 mg/kg/injection, vehicle: saline): 118 % of control | T/C (dose: 1.5 mg/kg/injection, vehicle: saline): 98 % of control | T/C (dose: 3.0 mg/kg/injection, vehicle: saline): 119 % of control

Nc1n[nH]c(N)n1
T/C [10]: 90 % of control | T/C [11]: 103 % of control | T/C [12]: 96 % of control | T/C (dose: 800.0 mg/kg/injection, vehicle: saline): 119 % of control

CC1OC(=O)C(C(C)C)NC(=O)C(C(C)C)OC(=O)C(C(C)C)NC(=O)C(C)OC(=O)C(C(C)C)NC(=O)C(C(C)C)OC(=O)C(C(C)C)NC(=O)C(C)OC(=O)C(C(C)C)NC(=O)C(C(C)C)OC(=O)C(C(C)C)NC1=O (stereo unspecified)
T/C (dose: 1.25 mg/kg/injection, vehicle: saline with Tween-80): 94 % of control | T/C (dose: 2.5 mg/kg/injection, vehicle: saline with Tween-80): 102 % of control | T/C (dose: 5.0 mg/kg/injection, vehicle: saline with Tween-80): 98 % of control | T/C (dose: 10.0 mg/kg/injection, vehicle: saline with Tween-80): 102 % of control | T/C (dose: 20.0 mg/kg/injection, vehicle: saline with Tween-80): 89 % of control | T/C (dose: 40.0 mg/kg/injection, vehicle: saline with Tween-80): 89 % of control

O=C1CN(CN2CCOCC2)C(=O)CN1CN1CCOCC1
T/C [5]: 118 % of control | T/C [6]: 113 % of control | T/C [13]: 95 % of control | T/C [10]: 93 % of control | T/C [11]: 104 % of control

CC(=O)c1c(O)c(C)c(O)c2c1OC1=CC(=O)C(C(C)=O)C(=O)C12C (stereo unspecified)
T/C (dose: 50.0 mg/kg/injection, vehicle: gum acacia): 89 % of control

CSc1ccc2c(c1)C(N1CCN(C)CC1)Cc1ccccc1S2 (stereo unspecified)
T/C (dose: 1.56 mg/kg/injection, vehicle: saline with Tween-80): 102 % of control

CS(=O)(=O)[O-].CS(=O)(=O)[O-].NC1CCCCC1N.[Pt+4] (stereo unspecified)
T/C (dose: 0.31 mg/kg/injection, vehicle: dextrose): 113 % of control | T/C (dose: 0.62 mg/kg/injection, vehicle: dextrose): 98 % of control | T/C (dose: 1.25 mg/kg/injection, vehicle: dextrose): 91 % of control

CC1(c2ccc(Cl)cc2)OC(=O)C(=Cc2ccc([N+](=O)[O-])s2)C(=O)O1 (stereo unspecified)
T/C (dose: 12.5 mg/kg/injection, vehicle: saline with Tween-80): 100 % of control | T/C [7]: 100 % of control | T/C [8]: 99 % of control | T/C [9]: 98 % of control

CCCCCCCCCCCCCCCCS(=O)CC(O)COC(=O)c1ccc(C(=O)OCC(O)CS(=O)CCCCCCCCCCCCCCCC)cc1 (stereo unspecified)
T/C (dose: 12.5 mg/kg/injection, vehicle: saline + Tween-80 + alcohol): 88 % of control | T/C (dose: 25.0 mg/kg/injection, vehicle: saline + alcohol): 95 % of control | T/C (dose: 50.0 mg/kg/injection, vehicle: saline + Tween-80 + alcohol): 95 % of control | T/C (dose: 100.0 mg/kg/injection, vehicle: saline + Tween-80 + alcohol): 92 % of control | T/C (dose: 100.0 mg/kg/injection, vehicle: saline + alcohol): 101 % of control | T/C (dose: 200.0 mg/kg/injection, vehicle: saline + Tween-80 + alcohol): 99 % of control | T/C (dose: 200.0 mg/kg/injection, vehicle: saline + alcohol): 218 % of control

CC(C)C1OC(=O)/C=C/C=C/C=C/C=C/C=C/CC(O)C(C)C(O)CC(O)CC(O)CC(O)CC(O)CC(O)CC(O)/C=C/C1C (stereo unspecified)
T/C [4]: 111 % of control | T/C [5]: 104 % of control | T/C [6]: 111 % of control

N=C(N)SCc1cccc2c(=O)cc(-c3ccccc3)oc12
T/C [14]: 107 % of control | T/C (dose: 25.0 mg/kg/injection, vehicle: Klucel (hydroxypropylcellulose) (HPC)): 104 % of control | T/C [6]: 106 % of control | T/C (dose: 50.0 mg/kg/injection, vehicle: Klucel (hydroxypropylcellulose) (HPC)): 107 % of control | T/C [13]: 94 % of control | T/C [10]: 100 % of control | T/C [12]: 89 % of control

O=C(CN1CC1)NCCCCCCCCNC(=O)CN1CC1
T/C (dose: 3.13 mg/kg/injection, vehicle: Klucel (hydroxypropylcellulose) (HPC)): 115 % of control | T/C (dose: 6.25 mg/kg/injection, vehicle: Klucel (hydroxypropylcellulose) (HPC)): 112 % of control | T/C [14]: 119 % of control
